Source: the supplement of paper PMC8882468

What was measured:
Experiment in all cases: CTG-3D luminescence at 96 h relative to day-0 seeding control (ratio to day 0); higher = more growth / less cytotoxicity; PDxO 3D drug screen, 96 h, CTG-3D normalised to day-0 seeding control.
[1] = tested on: HCI-015 (organoid from a triple-negative breast cancer xenograft)
[2] = tested on: HCI-008 (organoid from a HER2-enriched breast cancer xenograft)
[3] = tested on: HCI-010 (organoid from a breast cancer xenograft)
[4] = tested on: HCI-005.E2 (organoid from a breast cancer xenograft with a HER2-positive history)

CNC(=O)c1cccc(-c2ccc3c(N4CCOC[C@@H]4C)nc(N4CCOC[C@@H]4C)nc3n2)c1 [vistusertib]
CTG-3D luminescence at 96 h
Conditions | 12.5 pM | 0.00025 µM | 0.005 µM | 0.1 µM | 1 µM | 10 µM | 100 µM | 625 fM
[1], days in culture: 172 | – | – | 2.07 | 0.997 | 0.995 | 0.545 | 0.36 | 2.7
[1], days in culture: 191 | – | 1.24 | 1.54 | 0.827 | 0.859 | 0.436 | 0.329 | 1.43
[1], days in culture: 218 | – | 1.84 | 2.09 | 1.41 | 0.874 | 0.543 | 0.305 | 2.18
[2], days in culture: 228 | 1.54 | 1.64 | 1.41 | 0.913 | 0.71 | 0.548 | 0.289 | 1.66
[2], days in culture: 244 | 1.33 | 1.73 | 2.19 | 1.74 | 1.08 | 0.812 | 0.329 | 2.1
[3], days in culture: 52 | 2.1 | 2.32 | 2.14 | 1.57 | 0.904 | 0.76 | 0.17 | 2.19
[3], days in culture: 65 | 1.67 | 1.73 | 1.69 | 1.14 | 0.708 | 0.543 | 0.0432 | 1.68
[3], days in culture: 103 | 3.33 | 3.37 | 3.25 | 1.95 | 1.51 | 1.24 | 0.419 | 3.04

[4]
Conditions | CTG-3D luminescence at 96 h
12.5 pM | 1.89
0.00025 µM | 2.02
0.005 µM | 2.14
0.1 µM | 2.05
1 µM | 0.528
10 µM | 0.53
100 µM | 0.57
625 fM | 1.98
